Source: patent US20240293345A1, “COMBINATIONS OF LOCAL ANESTHETICS FOR IMPROVED PAIN RELIEF” (priority 2021, published 2024)

What was measured:
[1] = given subcutaneously; cited from earlier work
[2] = Local anesthesia for a dislocated shoulder (incident described by patient 192293); format: in vivo, human; details: three attempts of administration, patient's own account
[3] = local anesthesia or nerve blocks; cited from earlier work
[4] = Case studies: local anesthesia by injection to the mouth region before dental procedures; format: in vivo, human; details: for anesthetic effect of one local anesthetic alone: cases previously observed by the inventors; for local anesthetic effect / pain relief during dental procedures: patients with a history of poor pain relief after just one local anesthetic, injection to mouth region
Description: The experiments and disclosures provided herein are based on 9 case studies performed on patients that had, or previously has had phenotype red hair. The inventors performed odontological procedures on the patients and compared pain relief to prior experiences with local anesthetics.
9 patients with a history of poor pain relief after administration of just one local anesthetic received a combination of lidocaine and prilocaine before various dental procedures where performed. The patients pain sensation was the noted in case studies kept at the inventor's clinic.
Commercially available Xylocain Dental Adrenaline (lidocaine HCL 20 mg/mL with epinephrine 12.5 μg/mL) and Citanest Dental Octopressin (prilocaine HCL 30 mg/mL and felypressin 0.54 μg/mL) was administered by injection to mouth region of the patient for pain relief. Both Xylocain Dental Adrenaline and Citanest Dental Octopressin was provided in cartridges containing 1.8 mL of solution comprising active ingredients in said concentrations.

[5] = in vivo; cited from earlier work

## CCN(CC)CCOC(=O)c1ccc(N)cc1 [novocaine]
[1]
  anesthetic effects in redheads: resistant to the anesthetic effects

## CCN(CC)CC(=O)Nc1c(C)cccc1C [lidocaine]
[2]
  pain relief: without obtaining adequate pain relief
[1]
  anesthetic effects in redheads: resistant to the anesthetic effects
[3]
  onset of effect: within several minutes
[4]
  anesthetic effect of one local anesthetic alone: did not provide adequate anesthetic effect
  local anesthetic effect / pain relief during dental procedures: Poor effect
[4]; listed as Lidocaine
  local anesthetic effect / pain relief during dental procedures: not effective

## CCCNC(C)C(=O)Nc1ccccc1C (stereo not drawn) [prilocaine]
[5]
  metabolism and excretion: rapidly metabolized by the liver and excreted in the urine as o-toluidine
[4]
  anesthetic effect of one local anesthetic alone: did not provide adequate anesthetic effect
